# Source: patent US11389463B2, “Antiviral nucleoside reverse transcriptase inhibitor” (priority 2017, dated 2022)
# Structures can show the parent of a compound that is named as a salt.
# Columns and labels:
# HIV-1 = assay: Detection of in vitro anti-HIV activity (HIV-1 infected MT-4 cells, CellTiter-glo); format: cell-based; settings: Human immunodeficiency virus 1, MT4, 120 h, 5 days, read-out: HIV activity and cytotoxicity data EC50
# Protocol: Compound treatment: the test compounds and the reference compounds were 2-fold diluted with DMSO and added to the cell culture plate. The test compounds and the reference compounds were tested at 8 concentrations in duplicate.
# [1] = Cytotoxicity experiments of the anti-HBV test (Cell-titer Blue); format: cell-based; settings: human, HepG2.2.15 cells, six days after treatment
# Protocol: Cytotoxicity experiments: the arrangement of compounds on plate and compound-treatment process were the same as that of […] activity. Six days after the cells were treated by compounds, the cell activity was tested. Cell-titer Blue reagent was added to each well, the cells were incubated at 37° C. for 3 hours, and fluorescence values were read (560Ex/590 Em). The data were analyzed and the relative cell viability was calculated:
# The percentage of cell viability was calculated using the following formula: % cell viability=(fluorescence reading of sample−fluorescence reading of culture control)/(fluorescence reading of DMSO control−fluorescence reading of culture control)×100.
# Finally, the CC50 value of the compounds were calculated by the GraphPad Prism software.
# HBV = assay: Detection of anti-HBV activity in vitro (HepG2.2.15 cells, HBV DNA by quantitative PCR); format: cell-based; settings: Hepatitis B virus, HBV DNA in supernatant on the eighth day, read-out: HBV activity and cytotoxicity data EC50
# Protocol: Anti-cell viability assay: in vitro anti-hepatitis b virus activity of Example compounds was tested in HepG2.2.15 cells with TDF as a positive control compound. Cells were seeded into a 96-well plate on the first day; the compounds were added to treat the cells on the next day; and a new culture medium containing the compounds was replaced on the fifth day. On the eighth day, the supernatant was collected for DNA extraction. The content of HBV DNA was detected by quantitative PCR. Both test compound and TDF were subjected to a 3-fold serial dilution to get 8 concentration points in duplicate. The final concentration of DMSO in the culture medium was 0.5%. The formula for calculating the percentage of inhibition is as follows: Inhibition rate=(1−copy number of HBV in sample/copy number of HBV in DMSO control group)×100%
# [2] = Cytotoxicity assay in uninfected MT-4 cells (CellTiter-glo); format: cell-based; settings: human, read-out: HIV activity and cytotoxicity data CC50
# Protocol: The data was analyzed by GraphPad Prism software, and the curve was fitted and EC50 and CC50 values were calculated. EC50 refers to the effective concentration that inhibits 50% virus production, 50% virus infectivity, or 50% virus-induced cellular effects. CC50 refers to the inhibitory concentration that reduces the cell growth or viability of uninfected cells by 50%.
# Viral infection and cell treatment: HIV-1 and MT-4 cells were co-incubated at 37° C., in an incubator with 5% CO2 for 1 h. The infected cells were then seeded in a cell culture plate at a certain density. The final concentration of DMSO in the cell culture medium was 0.5%. The cells were incubated at 37° C., in an incubator with 5% CO2 for 5 days. The cells tested in the cytotoxicity assay were uninfected MT-4 cells, and other test conditions were with the same as that of the antiviral activity assay.
# The activity assay of the cell: the cell viability was tested by using cell viability assay reagent CellTiter-glo (Promega). The raw data was used for calculating the anti-HIV-1 activity and cytotoxicity of the Compounds.
# [3] = Liver microsomal metabolism experiment, human liver microsomes; format: in vitro ADME; settings: pH 7.4, 1 μM compound, 0.5 mg/mL protein, NADPH
# Protocol: (§1) Microsomal experiments: human liver microsomes: 0.5 mg/mL, Xenotech; rat liver microsomes: 0.5 mg/mL, Xenotech; coenzyme (NADPH/NADH): 1 mM, Sigma Life Science; magnesium chloride: 5 mM, 100 mM phosphate buffer (pH 7.4).
# (§2) Preparation of stock solution: powder of Example compounds were precisely weighed and dissolved in DMSO to 5 mM.
# (§3) Preparation of phosphate buffer (100 mm, pH 7.4): 0.5M pre-formulated potassium dihydrogen phosphate (150 ml) and 0.5M potassium hydrogen phosphate (700 ml) were mixed well. The pH of the mixture was then adjusted to 7.4 with 0.5M potassium hydrogen phosphate solution. The resulting solution was 5-fold diluted with ultrapure water before use, and magnesium chloride was added to the solution, affording a phosphate buffer (100 mm), containing potassium phosphate (100 mM), magnesium chloride (3.3 mM), pH 7.4. […]
# (§4) Data analysis: The peak area of the corresponding compounds and internal standard was detected by LC-MS/MS system, and the peak area ratio of compounds to internal standard was calculated. The slope was measured by plotting the natural log of the percentage of the remaining amount of the compounds versus time, and t1/2 and CLint were calculated according to the following formula, where V/M is equal to 1/protein concentration.
# [4] = Liver microsomal metabolism experiment, rat liver microsomes; format: in vitro ADME; settings: SD, pH 7.4, 1 μM compound, 0.5 mg/mL protein, NADPH
# Protocol: as §1, §2, §3, §4
# [5] = relative to TDF; cited from earlier work
# immune cells = settings: relative to TDF; cited from earlier work
Structure (SMILES),EC50 (HIV-1),CC50 at 6 days [1],EC50 (HBV),CC50 at 5 days [2],microsomal CLint at 1 μM ([3]; read-out: Human liver microsome experiment CLint),half-life at 1 μM ([3]; read-out: Human liver microsome experiment t1/2(min)),microsomal CLint at 1 μM ([4]; read-out: Rat liver microsome experiment CLint),half-life at 1 μM ([4]; read-out: Rat liver microsome experiment t1/2(min)),"concentration of TFV in plasma metabolized by TAF, lower than that of TDF [5]","concentration of TFV in immune cells metabolized by TAF, times higher than that of TDF (immune cells)"
"CCCCCCCCCCCCCCCCS(=S)CCO[P@@](=O)(CO[C@H](C)Cn1cnc2c(N)ncnc21)OCOC(=O)OC(C)C (single isomer, unassigned) [Compound T-3-1]",≤ 5 nM,> 50000 nM,100 to 400 nM,100 to 500 nM,,,,,,
"CCCCCCCCCCCCCCCCS(=S)CCO[P@](=O)(CO[C@H](C)Cn1cnc2c(N)ncnc21)OCOC(=O)OC(C)C (single isomer, unassigned) [Compound T-3-2]",≤ 5 nM,> 50000 nM,100 to 400 nM,100 to 500 nM,71 µL/min/mg,19.5 min,54.4 µL/min/mg,25.5 min,,
"CC(C)OC(=O)[C@H](C)N[P@](=O)(CO[C@H](C)Cn1cnc2c(N)ncnc21)Oc1ccccc1 [TAF, Tenofovir Alafenamide Fumarate]",,,,,,,,,90%,4 times
